Results: ChEMBL document CHEMBL1908105, “UDP-glucuronosyltransferases and clinical drug-drug interactions” (Pharmacol Ther, 2005)
Values joined by “and” are separate entries in the source; they are usually repeats but may differ in a detail not shown here. Identical values can stand only once.

Key:
[1] = Inhibition of morphine glucuronidation by human fetal-liver microsomes; parameters: species or system Microsome
[2] = Inhibition of ciramadol glucuronidation by human UGT enzymes from liver microsomes; parameters: species or system Microsome
[3] = Inhibition of AZT glucuronidation by human UGT enzymes from liver microsomes; parameters: species or system Microsome
[4] = Inhibition of 4-methylumbelliferone glucuronidation by human UGT enzymes from liver microsomes; parameters: species or system Microsome
[5] = target: T1, UGT1A9 (Homo sapiens, UniProt O60656); test: Inhibition of propofol (assayed at the Km) glucuronidation by human recombinant UGT1A9 (+/- 15% inhibition at 5mM VPA); settings: recombinant UGT1A9, probe propofol
[6] = target: T2, UDP-glucuronosyltransferase 2B7 (Homo sapiens, UniProt P16662); test: Inhibition of AZT glucuronidation by human recombinant UGT2B7
T2 sequence (P16662 whole entry): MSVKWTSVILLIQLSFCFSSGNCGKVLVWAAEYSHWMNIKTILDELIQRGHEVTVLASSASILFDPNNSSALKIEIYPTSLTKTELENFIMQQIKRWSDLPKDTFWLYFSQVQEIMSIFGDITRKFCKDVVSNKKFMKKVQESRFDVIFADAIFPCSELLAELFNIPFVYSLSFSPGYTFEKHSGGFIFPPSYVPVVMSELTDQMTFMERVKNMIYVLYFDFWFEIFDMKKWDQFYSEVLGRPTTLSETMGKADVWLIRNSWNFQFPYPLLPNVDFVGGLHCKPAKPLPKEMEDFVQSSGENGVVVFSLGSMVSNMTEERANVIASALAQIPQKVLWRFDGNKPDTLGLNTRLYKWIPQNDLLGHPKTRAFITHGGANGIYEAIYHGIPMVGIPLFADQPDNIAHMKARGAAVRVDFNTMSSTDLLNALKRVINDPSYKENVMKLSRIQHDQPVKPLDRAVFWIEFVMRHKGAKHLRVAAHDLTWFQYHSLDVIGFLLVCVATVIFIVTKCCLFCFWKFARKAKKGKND

[7] = target: UGT2B15 (Homo sapiens, UniProt P54855); test: Inhibition of dihydrotestosterone (assayed at the Km) glucuronidation by human recombinant UGT2B15 (+/- 11% inhibition at 5mM VPA); settings: recombinant UGT2B15, probe dihydrotestosterone
[8] = target: UDP-glucuronosyltransferase 2B28 (Homo sapiens, UniProt Q9BY64); test: Drug glucuronidation reaction catalyzed by human recombinant UGT2B28
Chain of UDP-glucuronosyltransferase 2B28 (Q9BY64 whole entry): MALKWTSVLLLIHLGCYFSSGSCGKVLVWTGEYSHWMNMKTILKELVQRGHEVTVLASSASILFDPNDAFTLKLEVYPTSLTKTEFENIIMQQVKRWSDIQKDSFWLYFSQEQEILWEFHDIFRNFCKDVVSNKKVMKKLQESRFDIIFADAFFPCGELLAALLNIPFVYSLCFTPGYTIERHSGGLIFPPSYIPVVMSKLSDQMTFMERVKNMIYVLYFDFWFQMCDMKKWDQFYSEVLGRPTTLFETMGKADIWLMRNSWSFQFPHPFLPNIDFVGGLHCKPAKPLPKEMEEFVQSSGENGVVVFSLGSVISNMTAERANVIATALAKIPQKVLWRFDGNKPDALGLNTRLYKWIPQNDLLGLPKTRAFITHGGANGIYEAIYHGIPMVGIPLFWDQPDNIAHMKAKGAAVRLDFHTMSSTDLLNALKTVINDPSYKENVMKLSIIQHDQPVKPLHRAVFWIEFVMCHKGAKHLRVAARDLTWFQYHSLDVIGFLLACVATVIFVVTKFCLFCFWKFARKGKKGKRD

[9] = Inhibition of codeine glucuronidation by human UGT enzymes from liver homogenate; assay type: tissue-based
[10] = target: T3, UDP-glucuronosyltransferase 1A1 (Homo sapiens, UniProt P22309); test: Inhibition of 4-methylumbelliferone glucuronidation by human recombinant UGT1A1
T3 sequence (P22309 whole entry): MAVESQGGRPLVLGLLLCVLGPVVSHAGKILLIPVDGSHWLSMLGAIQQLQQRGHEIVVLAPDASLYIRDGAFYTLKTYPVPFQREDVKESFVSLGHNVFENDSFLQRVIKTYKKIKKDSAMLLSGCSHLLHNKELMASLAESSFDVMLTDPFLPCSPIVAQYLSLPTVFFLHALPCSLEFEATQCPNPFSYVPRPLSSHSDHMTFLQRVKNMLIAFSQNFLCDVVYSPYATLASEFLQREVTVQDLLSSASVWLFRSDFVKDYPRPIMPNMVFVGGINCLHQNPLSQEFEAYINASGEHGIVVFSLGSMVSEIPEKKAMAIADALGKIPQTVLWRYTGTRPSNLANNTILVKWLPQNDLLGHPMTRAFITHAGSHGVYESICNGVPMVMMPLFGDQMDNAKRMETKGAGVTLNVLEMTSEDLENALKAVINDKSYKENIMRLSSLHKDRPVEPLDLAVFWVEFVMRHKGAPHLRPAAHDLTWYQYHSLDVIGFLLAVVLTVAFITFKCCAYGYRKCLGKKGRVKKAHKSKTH

[11] = target: T2, UDP-glucuronosyltransferase 2B7; test: (§1) Drug glucuronidation reaction catalyzed by human recombinant UGT2B7
[12] = target: T4, UGT2B7 (Homo sapiens, UniProt P16662); test: as §1; settings: recombinant UGT2B7
T4 sequence (P16662 whole entry): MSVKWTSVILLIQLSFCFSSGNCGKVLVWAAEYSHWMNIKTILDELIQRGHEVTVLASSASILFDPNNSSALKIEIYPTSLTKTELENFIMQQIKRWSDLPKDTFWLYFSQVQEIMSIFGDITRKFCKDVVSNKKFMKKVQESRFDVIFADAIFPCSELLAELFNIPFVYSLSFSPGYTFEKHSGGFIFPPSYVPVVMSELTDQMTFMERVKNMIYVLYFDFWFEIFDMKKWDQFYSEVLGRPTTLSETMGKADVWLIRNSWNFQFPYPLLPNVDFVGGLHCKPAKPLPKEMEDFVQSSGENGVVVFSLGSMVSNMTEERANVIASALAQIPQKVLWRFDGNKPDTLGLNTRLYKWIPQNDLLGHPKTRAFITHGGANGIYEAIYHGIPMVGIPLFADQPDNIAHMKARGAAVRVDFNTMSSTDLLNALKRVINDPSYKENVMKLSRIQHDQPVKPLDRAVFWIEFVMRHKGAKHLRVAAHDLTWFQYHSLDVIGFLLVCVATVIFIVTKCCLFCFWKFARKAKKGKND

[13] = target: UGT1A3 (Homo sapiens, UniProt P35503); test: (§2) Drug glucuronidation reaction catalyzed by human recombinant UGT1A3; settings: recombinant UGT1A3
[14] = target: T5, UDP-glucuronosyltransferase 1A3 (Homo sapiens, UniProt P35503); test: as §2
T5 sequence (P35503 whole entry): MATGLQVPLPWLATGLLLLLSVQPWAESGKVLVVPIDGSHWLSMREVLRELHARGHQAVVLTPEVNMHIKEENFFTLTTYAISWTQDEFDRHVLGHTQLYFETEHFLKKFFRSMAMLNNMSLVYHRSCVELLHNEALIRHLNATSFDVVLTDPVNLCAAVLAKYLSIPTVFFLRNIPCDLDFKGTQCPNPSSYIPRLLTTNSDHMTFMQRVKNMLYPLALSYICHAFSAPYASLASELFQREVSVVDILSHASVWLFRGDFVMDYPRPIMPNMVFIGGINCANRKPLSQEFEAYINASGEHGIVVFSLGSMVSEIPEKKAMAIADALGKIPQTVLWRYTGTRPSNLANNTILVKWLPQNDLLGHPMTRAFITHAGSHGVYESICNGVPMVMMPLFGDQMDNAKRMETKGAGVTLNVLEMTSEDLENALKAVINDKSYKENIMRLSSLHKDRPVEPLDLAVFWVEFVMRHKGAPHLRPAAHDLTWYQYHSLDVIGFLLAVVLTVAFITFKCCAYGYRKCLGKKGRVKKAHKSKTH

[15] = target: T6, UDP-glucuronosyltransferase 1A9 (Homo sapiens, UniProt O60656); test: Inhibition of 4-methylumbelliferone glucuronidation by human recombinant UGT1A9
T6 sequence (O60656 whole entry): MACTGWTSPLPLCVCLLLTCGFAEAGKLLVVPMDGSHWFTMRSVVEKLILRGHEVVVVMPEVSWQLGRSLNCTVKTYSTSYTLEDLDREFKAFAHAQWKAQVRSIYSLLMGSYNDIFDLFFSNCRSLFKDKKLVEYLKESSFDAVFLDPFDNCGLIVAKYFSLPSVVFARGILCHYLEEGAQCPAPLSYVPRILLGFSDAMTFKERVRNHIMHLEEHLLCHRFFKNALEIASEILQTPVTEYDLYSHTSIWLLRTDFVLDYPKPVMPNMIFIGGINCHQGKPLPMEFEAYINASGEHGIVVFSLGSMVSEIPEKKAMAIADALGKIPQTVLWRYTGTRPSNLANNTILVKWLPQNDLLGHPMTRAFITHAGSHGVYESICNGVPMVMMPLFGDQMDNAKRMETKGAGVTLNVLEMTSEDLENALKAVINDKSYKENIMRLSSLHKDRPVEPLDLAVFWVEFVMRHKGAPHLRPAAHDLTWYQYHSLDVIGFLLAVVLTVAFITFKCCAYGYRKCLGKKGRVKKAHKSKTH

[16] = target: T1, UGT1A9; test: (§3) Drug glucuronidation reaction catalyzed by human recombinant UGT1A9; settings: recombinant UGT1A9
[17] = target: T6, UDP-glucuronosyltransferase 1A9; test: as §3
[18] = target: UDP-glucuronosyltransferase 1A7 (Homo sapiens, UniProt Q9HAW7); test: Inhibition of 4-methylumbelliferone glucuronidation by human recombinant UGT1A7
Chain of UDP-glucuronosyltransferase 1A7 (Q9HAW7 whole entry): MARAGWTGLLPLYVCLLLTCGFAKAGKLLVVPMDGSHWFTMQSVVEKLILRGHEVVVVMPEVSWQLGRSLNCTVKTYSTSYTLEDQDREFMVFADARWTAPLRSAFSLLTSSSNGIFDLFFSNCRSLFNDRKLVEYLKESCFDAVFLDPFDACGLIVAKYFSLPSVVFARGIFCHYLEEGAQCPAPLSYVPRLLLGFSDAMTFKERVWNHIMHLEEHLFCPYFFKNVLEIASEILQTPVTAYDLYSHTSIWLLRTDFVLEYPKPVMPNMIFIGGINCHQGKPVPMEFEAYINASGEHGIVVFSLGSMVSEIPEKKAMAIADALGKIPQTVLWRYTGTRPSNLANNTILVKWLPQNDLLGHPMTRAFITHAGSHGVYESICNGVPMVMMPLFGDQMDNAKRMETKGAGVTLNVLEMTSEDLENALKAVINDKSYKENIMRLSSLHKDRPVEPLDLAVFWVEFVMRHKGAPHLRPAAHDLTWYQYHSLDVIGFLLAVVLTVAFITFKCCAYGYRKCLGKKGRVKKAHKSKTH

[19] = target: UDP-glucuronosyltransferase 1A10 (Homo sapiens, UniProt Q9HAW8); test: Inhibition of 4-methylumbelliferone glucuronidation by human recombinant UGT1A10
Chain of UDP-glucuronosyltransferase 1A10 (Q9HAW8 whole entry): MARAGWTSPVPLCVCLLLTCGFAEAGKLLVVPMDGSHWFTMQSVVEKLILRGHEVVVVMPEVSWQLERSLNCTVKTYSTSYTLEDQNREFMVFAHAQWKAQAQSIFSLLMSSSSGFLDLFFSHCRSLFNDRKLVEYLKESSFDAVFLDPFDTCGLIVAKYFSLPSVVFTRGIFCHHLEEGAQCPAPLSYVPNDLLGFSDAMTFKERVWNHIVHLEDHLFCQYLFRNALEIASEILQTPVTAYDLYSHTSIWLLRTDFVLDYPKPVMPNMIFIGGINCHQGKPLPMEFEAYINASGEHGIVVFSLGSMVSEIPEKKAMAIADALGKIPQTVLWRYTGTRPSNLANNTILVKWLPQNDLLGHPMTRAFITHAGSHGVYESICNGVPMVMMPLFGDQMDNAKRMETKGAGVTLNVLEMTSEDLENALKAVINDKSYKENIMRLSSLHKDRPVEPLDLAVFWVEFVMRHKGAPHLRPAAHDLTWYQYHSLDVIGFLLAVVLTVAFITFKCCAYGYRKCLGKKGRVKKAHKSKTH

[20] = target: T7, UDP-glucuronosyltransferase 1A6 (Homo sapiens, UniProt P19224); test: Drug glucuronidation reaction catalyzed by human recombinant UGT1A6
T7 sequence (P19224 whole entry): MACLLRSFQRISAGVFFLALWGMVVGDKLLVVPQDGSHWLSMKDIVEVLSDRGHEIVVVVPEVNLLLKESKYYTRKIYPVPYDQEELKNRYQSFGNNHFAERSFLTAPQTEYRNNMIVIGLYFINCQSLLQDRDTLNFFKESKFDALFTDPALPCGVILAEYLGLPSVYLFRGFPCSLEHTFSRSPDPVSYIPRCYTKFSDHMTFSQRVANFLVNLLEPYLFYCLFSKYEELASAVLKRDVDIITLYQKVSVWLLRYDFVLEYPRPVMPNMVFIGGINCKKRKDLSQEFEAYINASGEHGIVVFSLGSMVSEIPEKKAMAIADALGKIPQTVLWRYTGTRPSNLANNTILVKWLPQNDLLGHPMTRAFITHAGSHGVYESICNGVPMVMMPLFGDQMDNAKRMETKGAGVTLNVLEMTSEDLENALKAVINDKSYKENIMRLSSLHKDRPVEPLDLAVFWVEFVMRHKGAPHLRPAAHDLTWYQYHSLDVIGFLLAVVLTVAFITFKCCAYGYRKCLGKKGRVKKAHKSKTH

[21] = target: T8, UDP-glucuronosyltransferase 1A4 (Homo sapiens, UniProt P22310); test: (§4) Drug glucuronidation reaction catalyzed by human recombinant UGT1A4
T8 sequence (P22310 whole entry): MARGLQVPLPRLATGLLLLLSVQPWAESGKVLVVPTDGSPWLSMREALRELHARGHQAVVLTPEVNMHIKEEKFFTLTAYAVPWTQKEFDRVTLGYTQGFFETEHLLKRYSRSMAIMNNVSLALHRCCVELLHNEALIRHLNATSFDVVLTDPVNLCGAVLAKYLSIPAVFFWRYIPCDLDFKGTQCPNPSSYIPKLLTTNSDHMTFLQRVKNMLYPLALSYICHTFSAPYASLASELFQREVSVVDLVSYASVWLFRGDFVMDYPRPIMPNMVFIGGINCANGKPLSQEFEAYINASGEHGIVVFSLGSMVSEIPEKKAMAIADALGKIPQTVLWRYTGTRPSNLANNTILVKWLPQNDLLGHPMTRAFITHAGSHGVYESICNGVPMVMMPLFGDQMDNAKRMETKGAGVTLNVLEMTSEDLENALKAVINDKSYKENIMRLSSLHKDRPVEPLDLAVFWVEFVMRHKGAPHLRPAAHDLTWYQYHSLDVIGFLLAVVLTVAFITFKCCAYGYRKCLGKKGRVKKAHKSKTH

[22] = target: UGT1A4 (Homo sapiens, UniProt P22310); test: as §4; settings: recombinant UGT1A4
[23] = Inhibition of acetaminophen glucuronidation by human UGT enzymes from liver microsomes; parameters: species or system Microsome
[24] = target: T7, UDP-glucuronosyltransferase 1A6; test: Inhibition of 4-methylumbelliferone glucuronidation by human recombinant UGT1A6
[25] = substrate: CS(=O)(=O)c1ccc(C2=C(c3ccccc3)C(=O)OC2O)cc1; test: (§5) Drug glucuronidation reaction catalyzed by human recombinant UGT2B15
[26] = substrate: Cc1ccc(C(=O)c2cc(O)c(O)c([N+](=O)[O-])c2)cc1; test: as §5
[27] = substrate: CCN(CC)C(=O)/C(C#N)=C/c1cc(O)c(O)c([N+](=O)[O-])c1; test: as §5
[28] = substrate: CC(O)/C(=C(\c1ccccc1)c1ccc(OCCN(C)C)cc1)c1ccccc1; test: as §5
[29] = substrate: CCc1c2c(nc3ccc(O)cc13)-c1cc3c(c(=O)n1C2)COC(=O)[C@]3(O)CC; test: as §5
[30] = substrate: C[C@]12CC[C@H](O)C[C@@H]1CC[C@@H]1[C@@H]2CC[C@]2(C)[C@@H](O)CC[C@@H]12; test: as §5
[31] = substrate: O=C1Nc2ccc(Cl)cc2C(c2ccccc2)=N[C@H]1O; test: not read

O=C1Nc2ccc(Cl)cc2C(c2ccccc2)=NC1O (stereo unspecified) [OXAZEPAM]
Ki [1]: 200 µM and 270 µM
Ki [2]: 120 µM
Ki [3]: 580 µM
Ki [4]: 188 µM

CCCC(CCC)C(=O)O [VALPROIC ACID]
inhibition at 5000 µM [5]: 46%
Ki [6]: 1600 µM
inhibition at 5000 µM [7]: 41%

C[C@]12CC[C@@H]3c4ccc(O)cc4CC[C@H]3[C@@H]1CC[C@@H]2O [ESTRADIOL]
Vmax [8]: < 1 pmol/min/mg protein

O=C(O)Cc1ccccc1Nc1c(Cl)cccc1Cl [DICLOFENAC]
Ki [9]: 7.9 µM
Ki [10]: 52 µM
Km [11]: 25 µM
Km [12]: 13 µM
Km [13]: 12 µM
Vmax [14]: 142 pmol/min/mg protein
Ki [15]: 11 µM
Km [16]: 16 µM
Vmax [17]: 166 pmol/min/mg protein
Ki [18]: 19 µM
Ki [19]: 28 µM

CC(=O)Nc1ccc(O)cc1 [ACETAMINOPHEN]
Vmax [20]: 100 pmol/min/mg protein

Cc1cc2c(s1)Nc1ccccc1N=C2N1CCN(C)CC1 [OLANZAPINE]
Vmax [21]: 2370 pmol/min/mg protein
Km [22]: 227 µM

CCCN(CCC)S(=O)(=O)c1ccc(C(=O)O)cc1 [PROBENECID]
Ki [10]: 221 µM
Ki [23]: 1100 µM
Ki [24]: 1430 µM
Ki [3]: 1600 µM
Ki [15]: 2450 µM
Ki [18]: 96 µM
Ki [19]: 231 µM

B1: UDP-glucuronosyltransferase 2B15 (Homo sapiens) (protein)
chain: MSLKWTSVFLLIQLSCYFSSGSCGKVLVWPTEYSHWINMKTILEELVQRGHEVTVLTSSASTLVNASKSSAIKLEVYPTSLTKNYLEDSLLKILDRWIYGVSKNTFWSYFSQLQELCWEYYDYSNKLCKDAVLNKKLMMKLQESKFDVILADALNPCGELLAELFNIPFLYSLRFSVGYTFEKNGGGFLFPPSYVPVVMSELSDQMIFMERIKNMIHMLYFDFWFQIYDLKKWDQFYSEVLGRPTTLFETMGKAEMWLIRTYWDFEFPRPFLPNVDFVGGLHCKPAKPLPKEMEEFVQSSGENGIVVFSLGSMISNMSEESANMIASALAQIPQKVLWRFDGKKPNTLGSNTRLYKWLPQNDLLGHPKTKAFITHGGTNGIYEAIYHGIPMVGIPLFADQHDNIAHMKAKGAALSVDIRTMSSRDLLNALKSVINDPVYKENVMKLSRIHHDQPMKPLDRAVFWIEFVMRHKGAKHLRVAAHNLTWIQYHSLDVIAFLLACVATVIFIITKFCLFCFRKLAKKGKKKKRD
Km [25]: 286 µM
Vmax [25]: 1.6e-05 µmol/min/mg
Km [26]: 429 µM
Vmax [26]: 2.4e-05 µmol/min/mg
Km [27]: 322 µM
Vmax [27]: 2.4e-05 µmol/min/mg
Km [28]: 7 µM and 18 µM
Km [29]: 186 µM
Vmax [29]: 2e-06 µmol/min/mg
Km [30]: 15 µM
Vmax [30]: 0.00098 µmol/min/mg
Km [31]: 35 µM and 29 µM
